Measurements from ChEMBL document CHEMBL5143570, “Development of naringenin-O-carbamate derivatives as multi-target-directed liagnds for the treatment of Alzheimer's disease” (Bioorg Med Chem Lett, 2022).
pIC50: −log10 of the molar value.

How the values were obtained:
[1] = Permeability of compound at 100 ug/mL by PAMPA-BBB assay
[2] = biological target: T1, Acetylcholinesterase (Rattus norvegicus, UniProt P37136); assay: Inhibition of rat cortex AChE using acetylthiocholine as substrate incubated for 15 mins by DTNB reagent based Ellman's method; type: tissue-based
T1 sequence (P37136 whole entry): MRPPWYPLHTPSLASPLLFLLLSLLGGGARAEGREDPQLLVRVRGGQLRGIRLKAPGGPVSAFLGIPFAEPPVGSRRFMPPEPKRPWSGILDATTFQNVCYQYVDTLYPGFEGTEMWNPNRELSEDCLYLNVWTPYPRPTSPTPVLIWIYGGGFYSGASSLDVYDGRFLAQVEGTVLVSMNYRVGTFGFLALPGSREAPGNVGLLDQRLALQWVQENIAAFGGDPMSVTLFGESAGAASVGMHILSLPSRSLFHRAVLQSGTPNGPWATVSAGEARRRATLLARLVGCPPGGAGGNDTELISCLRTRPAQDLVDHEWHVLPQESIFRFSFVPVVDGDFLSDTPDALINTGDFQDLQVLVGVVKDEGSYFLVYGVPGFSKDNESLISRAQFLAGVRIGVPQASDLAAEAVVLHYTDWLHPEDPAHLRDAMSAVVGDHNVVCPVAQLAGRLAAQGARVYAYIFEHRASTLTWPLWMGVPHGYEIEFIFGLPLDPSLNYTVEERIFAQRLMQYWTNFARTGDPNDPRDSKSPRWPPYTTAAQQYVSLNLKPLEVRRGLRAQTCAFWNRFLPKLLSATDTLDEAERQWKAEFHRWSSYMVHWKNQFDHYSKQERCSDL

[3] = Effect on APP protein expression in pEGFP-N1-APP plasmid transfected mouse HT-22 cells assessed as decrease in fluorescence intensity at 20 uM incubated for 24 hrs by fluorescence microscopic analysis (reference value: 30.7); type: functional
[4] = test system: L02; assay: Hepatoprotective activity against H2O2-induced cytotoxicity in human L02 cells assessed as increase in cell viability at 20 uM by MTT assay; type: functional
[5] = biological target: Amyloid-beta precursor protein (Homo sapiens) (UniProt P05067); assay: Inhibition of Cu2+-induced amyloid beta (1 to 42) (unknown origin) aggregation at 25 uM by thioflavin-T fluorescence method relative to control
Sequence of Amyloid-beta precursor protein (Homo sapiens) (P05067 whole entry): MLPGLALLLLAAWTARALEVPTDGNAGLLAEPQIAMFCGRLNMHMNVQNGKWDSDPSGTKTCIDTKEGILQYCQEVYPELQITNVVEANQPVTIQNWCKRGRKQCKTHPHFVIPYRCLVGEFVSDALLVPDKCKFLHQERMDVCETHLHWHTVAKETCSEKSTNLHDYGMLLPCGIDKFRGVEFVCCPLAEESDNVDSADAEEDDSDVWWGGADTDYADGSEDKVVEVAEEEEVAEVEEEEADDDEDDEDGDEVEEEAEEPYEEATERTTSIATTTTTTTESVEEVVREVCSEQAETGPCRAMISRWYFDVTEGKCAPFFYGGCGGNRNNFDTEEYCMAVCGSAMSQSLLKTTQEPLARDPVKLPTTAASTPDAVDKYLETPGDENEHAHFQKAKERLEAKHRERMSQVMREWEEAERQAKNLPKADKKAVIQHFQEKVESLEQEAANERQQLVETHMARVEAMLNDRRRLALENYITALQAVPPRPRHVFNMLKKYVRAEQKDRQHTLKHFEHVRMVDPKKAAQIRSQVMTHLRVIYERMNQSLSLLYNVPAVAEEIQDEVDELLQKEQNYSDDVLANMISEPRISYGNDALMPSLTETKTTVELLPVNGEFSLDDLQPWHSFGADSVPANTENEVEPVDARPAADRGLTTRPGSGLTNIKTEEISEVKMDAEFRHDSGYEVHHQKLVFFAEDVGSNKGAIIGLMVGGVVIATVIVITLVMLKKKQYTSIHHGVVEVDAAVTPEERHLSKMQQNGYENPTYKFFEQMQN

CCN(C)C(=O)Oc1ccc(C2CC(=O)c3c(O)cc(OC(=O)N(C)CC)cc3O2)cc1 (stereo not given)
Papp at 100 ug/mL [1]: 16.8 ×10⁻⁶ cm/s | pIC50 [2]: 5.21 | Flu intensity [3]: 15.5 | Activity [4]: 77.3% | inhibition [5]: 66.5%
